# Assay results reported in ChEMBL document CHEMBL1151600, “6-Bromo-3-nitroflavone, a new high affinity benzodiazepine receptor agonist recognizes two populations of cerebral cortical binding sites” (Bioorg Med Chem Lett, 1997).
# Activity calls are given as the source filed them. No cut-off for these calls is given here.
# What was measured:
# [1] = biological target: GABA-A receptor; anion channel; test: Inhibition of [3H]flunitrazepam [3H]FNZ) binding to GABA-A Benzodiazepine receptor of synaptosomal membranes from rat cerebral cortex; format: tissue-based
# [2] = tested on: Mus musculus; test: Anxiolytic activity in mice at 100 ug/kg; format: functional
# [3] = biological target: GABA-A receptor; anion channel (Rattus norvegicus) (UniProt O09028+P15431+P18506+P18508+P19969+P20236+P23574+P23576+P28471+P28473+P30191+P62813+P63079+P63138+Q91ZM7+Q9ES14); test: Inhibition of [3H]flunitrazepam [3H]FNZ) binding to GABA-A benzodiazepine receptor of cortical membranes +/- 100 uM GABA (Partial agonist)
# [4] = biological target: GABA-A receptor; anion channel; test: Inhibition of [3H]zolpidem binding to GABA-A Benzodiazepine receptor of synaptosomal membranes from rat cerebellum; format: tissue-based
# [5] = tested on: Mus musculus; test: Anxiolytic activity in mice at 0.01 to 0.3 mg/kg intraperitoneal administration; format: functional, organism-based
# [6] = biological target: GABA-A receptor; anion channel; test: Inhibition of [3H]flunitrazepam [3H]FNZ) binding to GABA-A Benzodiazepine receptor of synaptosomal membranes from rat cerebellum; format: tissue-based
# [7] = biological target: GABA-A receptor; anion channel; test: Inhibition of [3H]flunitrazepam [3H]FNZ) binding to GABA-A Benzodiazepine receptor of synaptosomal membranes from rat hippocampus
# [8] = biological target: GABA-A receptor; anion channel; test: Inhibition of [3H]zolpidem binding to GABA-A Benzodiazepine receptor of synaptosomal membranes from rat cerebral cortex; format: tissue-based
# [9] = biological target: GABA-A receptor; anion channel; test: Inhibition of [3H]flunitrazepam [3H]FNZ) binding to GABA-A Benzodiazepine receptor of synaptosomal membranes from rat striatum
# [10] = biological target: GABA-A receptor; anion channel; test: Inhibition of [3H]flunitrazepam [3H]FNZ) binding to GABA-A Benzodiazepine receptor of synaptosomal membranes from rat spinal cord; format: tissue-based
SMILES,Ki [1],Anxiolytic activity [2],GABA shift [3],Ki [4],Anxiolytic affect [5],Ki [6],Ki [7],Ki [8],Ki [9],Ki [10]
O=c1cc(-c2ccc([N+](=O)[O-])cc2)oc2ccc(Br)cc12,220 nM,–,–,–,–,–,–,–,–,–
CN1C(=O)CN=C(c2ccccc2)c2cc(Cl)ccc21 [DIAZEPAM],–,35,–,–,–,–,–,–,–,–
O=c1cc(-c2cccc([N+](=O)[O-])c2)oc2ccc(Br)cc12,1.2 nM,–,1.38,3 nM,Active,3.6 nM,9.6 nM,3.8 nM,9.8 nM,12.7 nM
